Here are results for five molecules from EP1337551B1, “SUBSTANCE P ANALOGS FOR THE TREATMENT OF CANCER” (DABUR PHARMA LTD., priority 2000, dated 2002).

One data set concerns PA-1 (Ovary). Nature of the data set: In vitro cytotoxic activity of lipo conjugates, MTT assay, 48 hours. Format: cell-based. The procedure:
(§1) The cytotoxic effect of lipo-conjugates of substance P analogs SEQ ID NO: 6, SEQ ID NO: 7 and SEQ ID NO: 8, was studied by MTT assay which is based on the principle of uptake of MTT [3-[4,5-dimethylthiazol-2-yl]-2,5-diphenyl tetrazolium bromide], a tetrazolium salt by the metabolically active cells where it is metabolized by active mitochondria in to a blue colored formazan product which can be read spectrophotometrically. Briefly, tumor cells - KB (Oral squamous), U87MG (Blioblastoma), HBL100 (Breast), HeP2 (Larngeal), ECV304 (Endothelial), PA-1 (Ovary) and L132 (Lunng) were incubated with the peptide analogs for 48 hours at 37°C in a 96-well culture plate, followed by the addition of 100 µg MTT and further incubation of 1 hour. The formazan crystals formed inside the cells were dissolved with a detergent comprising of 10% Sodium dodecyl sulfate and 0.01 N HCl and optical density read on a multiscan ELISA reader. The optical density was directly proportional to the number of proliferating and metabolically active cells. SEQ ID NO: 6
A general note: Tetrazolium dyes change colour on reduction, which living cells bring about.

The next data set deals with HBL100 (Breast). The description is as above. It counts as cell-based. The procedure: as §1
Another data set has as its system L132 (Lunng). Described as above. Format: cell-based. The procedure:
as §1

The next data set has as its system ECV304 (Endothelial). Described as above. It counts as cell-based. The protocol:
as §1

For a further data set, the system named is HeP2 (Larngeal). Described as above. Format: cell-based. The procedure: as §1
Another data set has as its system U87MG (Blioblastoma). The description is as above. Format: cell-based. The protocol:
as §1

The next data set relates to KB (Oral squamous). Described as above. It counts as cell-based. The protocol: as §1
A further data set deals with L132 (lung). Description: In vitro cytotoxic activity, MTT assay, 72 hours. Format: cell-based, human. The protocol: (§2) The cytotoxic activity of synthesized peptides was tested on six human tumor cell lines namely MCF7 (breast), U373 (glioblastoma), PTC, (colon), L132 (lung), Su.86.86 (pancreas), and KB (oral). The tumor cells were collected at exponential growth phase and resuspended in medium (1.5 x 10^6 cells/ml in RPMI 1640 containing 10% FBS). 150µL of medium was added to the wells of a 96-well tissue culture plate (Nunc, Denmark) followed by 30µl of cell suspension. The plate was left in an incubator (37°C, 5% CO2) overnight. 20µl of the peptide (100 pM to 10 µM concentration) was added to marked wells of the 96-well plate. Each concentration was plated in triplicate. 20µl of medium alone was added to control wells while wells without cells served as blanks. A total volume of 200µL was ensured in each well and plate was left in incubator (37°C, 5% CO2). After 72 hours of incubation an MTT assay was performed and percentage cytotoxicity was calculated with respect to control cells.

Another data set relates to PTC, (colon). Nature of the data set: In vitro cytotoxic activity, MTT assay, 72 hours. Format: cell-based, human. The protocol:
as §2

Another data set concerns Su.86.86 (pancreas). Description: In vitro cytotoxic activity, MTT assay, 72 hours. It counts as cell-based, human. The procedure:
as §2

A further data set concerns U373 (glioblastoma). Description: In vitro cytotoxic activity, MTT assay, 72 hours. It counts as cell-based, human. The protocol: as §2
In a further data set the test system is MCF7 (breast). Description: In vitro cytotoxic activity, MTT assay, 72 hours. Format: cell-based, human. The procedure:
as §2

In another data set the test system is KB (oral). Description: In vitro cytotoxic activity, MTT assay, 72 hours. It counts as cell-based, human. The protocol: as §2
The next data set concerns SCLC. Particulars: inhibition of SCLC proliferation; cited from earlier work.
For data set [1], the system named is H-510 and H-69 SCLC cells. Particulars: proliferation of H-510 and H-69 SCLC cells in liquid culture and in semi-solid media; cited from earlier work.

Non-standard residues stand in square brackets, D forms with d. Residues, ends and D or L forms follow the SMILES beside them. pHOPA = not defined here

Consider `CCCC(=O)N[C@H](CCCNC(=N)N)C(=O)N1CCC[C@H]1C(=O)N[C@@H](CCCCN)C(=O)N1CCC[C@H]1C(=O)N[C@H](Cc1ccccc1)C(=O)N[C@@H](CCC(N)=O)C(=O)N[C@H](Cc1c[nH]c2ccccc12)C(=O)N[C@@H](Cc1ccccc1)C(=O)N[C@H](Cc1c[nH]c2ccccc12)C(=O)N[C@@H](CC(C)C)C(=O)NC1(C(N)=O)CCCC1` [SEQ ID NO: 7, Butanoyl-D-Arg-Pro-Lys-Pro-D-Phe-Gln-D-Trp-Phe-D-Trp-Leu-Ac5c-NH2] (HELM PEPTIDE1{[CCCC(=O)[*:2]].[dR].P.K.P.[dF].Q.[dW].F.[dW].L.[O=C(C1(N[*:1])CCCC1)[*:2]].[am]}$$$$V2.0), for which the “Percentage cytotoxicity at different concentrations” value is 12.7 ± 3.5% in the data set on PA-1 (Ovary) (1nM); 26.7 ± 2.4% in the data set on PA-1 (Ovary) (10nM); 32.9 ± 2.6% in the data set on PA-1 (Ovary) (100nM); 23.7 ± 3.3% with PA-1 (Ovary) (1µM); 13.9 ± 3.5% in the data set with HBL100 (Breast) (1nM); 22.9 ± 3.8% in the data set on HBL100 (Breast) (10nM). The “Percentage cytotoxicity at different concentrations” value is 23.9 ± 1.7% in the data set on HBL100 (Breast) (100nM); 22.8 ± 1.4% with HBL100 (Breast) (1µM); 14.9 ± 4.9% with L132 (Lunng) (1nM); 24.7 ± 3.5% with L132 (Lunng) (10nM); 18.5 ± 3.6% with L132 (Lunng) (100nM); 12.9 ± 2.4% in the data set with L132 (Lunng) (1µM). In addition, the “Percentage cytotoxicity at different concentrations” value in the data set with ECV304 (Endothelial) (1nM) turned out to be 13.9 ± 4.5%; with ECV304 (Endothelial) (10nM), 16.5 ± 3.3%; in the data set with ECV304 (Endothelial) (100nM), 20.9 ± 2.3%; with ECV304 (Endothelial) (1µM), 6.0 ± 2.4%; in the data set on HeP2 (Larngeal) (1nM), 16.4 ± 3.2%; with HeP2 (Larngeal) (10nM), 19.8 ± 4.8%. Moreover, the “Percentage cytotoxicity at different concentrations” value in the data set with HeP2 (Larngeal) (100nM) was 24.7 ± 2.5%; in the data set on HeP2 (Larngeal) (1µM), 12.9 ± 1.4%; with U87MG (Blioblastoma) (1nM) it was 22.9 ± 2.3%; with U87MG (Blioblastoma) (10nM), 27.8 ± 2.2%; in the data set on U87MG (Blioblastoma) (100nM) it was 21.8 ± 1.2%; in the data set with U87MG (Blioblastoma) (1µM), 14.8 ± 1.4%. For the same molecule, the “Percentage cytotoxicity at different concentrations” value in the data set on KB (Oral squamous) (1nM) came to 20.9 ± 3.6%; in the data set on KB (Oral squamous) (10nM), 21.9 ± 4.1%; with KB (Oral squamous) (100nM) it was 18.0 ± 5.2%; in the data set with KB (Oral squamous) (1µM), 9.0 ± 5.3%; with L132 (lung) (100pM), 14 ± 3.4%; in the data set on L132 (lung) (1nM) it was 25 ± 8%. Further, the “Percentage cytotoxicity at different concentrations” value is 19 ± 3.3% with L132 (lung) (10nM); 9 ± 2.3% in the data set with L132 (lung) (100nM); 9 ± 2.3% in the data set with L132 (lung) (1µM); 15 ± 2.3% in the data set on L132 (lung) (10µM); “Nil” with PTC, (colon) (100pM); “Nil” in the data set with PTC, (colon) (1nM). For the same molecule, the “Percentage cytotoxicity at different concentrations” value with PTC, (colon) (10nM) came out at 5.8 ± 0.2%; with PTC, (colon) (100nM), 5.3 ± 0.2%; in the data set with PTC, (colon) (1µM), 11.7 ± 3.0%; with PTC, (colon) (10µM), 27.3 ± 5.4%; with Su.86.86 (pancreas) (Su8686, 100pM), 6 ± 1.8%; with Su.86.86 (pancreas) (Su8686, 1nM), 25 ± 5.3%. The “Percentage cytotoxicity at different concentrations” value is recorded as 10 ± 2.8% in the data set on Su.86.86 (pancreas) (Su8686, 10nM); 15 ± 3.8% with Su.86.86 (pancreas) (Su8686, 100nM); 36 ± 3.3% with Su.86.86 (pancreas) (Su8686, 1µM); 38 ± 4.3% in the data set with Su.86.86 (pancreas) (Su8686, 10µM); 10.9 ± 1.0% with U373 (glioblastoma) (100pM); 13.4 ± 4.6% in the data set on U373 (glioblastoma) (1nM). In addition, the “Percentage cytotoxicity at different concentrations” value turned out to be 6.6 ± 0.7% with U373 (glioblastoma) (10nM); 8.8 ± 0.2% in the data set with U373 (glioblastoma) (100nM); 8.3 ± 0.5% in the data set with U373 (glioblastoma) (1µM); 21.1 ± 1.7% in the data set on U373 (glioblastoma) (10µM); 19.3 ±1.8% in the data set with MCF7 (breast) (MCF-7, 100pM); 20.55 ± 3.1% with MCF7 (breast) (MCF-7, 1nM). Further, the “Percentage cytotoxicity at different concentrations” value is 5.7 ± 1.5% in the data set with MCF7 (breast) (MCF-7, 10nM); 15.4 ± 0.7% in the data set on MCF7 (breast) (MCF-7, 100nM); 11.7 ± 5.1% with MCF7 (breast) (MCF-7, 1µM); 19.7 ±5% in the data set on MCF7 (breast) (MCF-7, 10µM); “Nil” with KB (oral) (100pM); 6 ± 0.9% in the data set with KB (oral) (1nM). The “Percentage cytotoxicity at different concentrations” value with KB (oral) (10nM) turned out to be 10 ± 3.4%; in the data set with KB (oral) (100nM), 10 ± 4.9%; in the data set with KB (oral) (1µM), 4 ± 2.6%; in the data set on KB (oral) (10µM), 15 ± 2.3%.
As a reminder, the IC50 is the concentration that inhibits the measured activity by half. On to “D-MePhe-D-Trp-Phe-D-TrpLeu(psi)-(CH2NH)-Leu-NH2 [Analog 6]”, for which the IC50 in the data set with SCLC is 2 µM.
In the case of “D-MePhe-D-Trp-Phe-DTrp-Leu-MPA [Analog 7]”, the half-inhibitory concentration (IC50) in the data set with SCLC is 5 µM.
Regarding “[D-Arg^1, D-Phe^5, D-Trp^7,9, Leu^11] substance P [Antagonist D]”, in data set [1], the IC50 was 5 µM.
For “pHOPA-D-Trp-Phe-D-Trp-Leu-Leu-NH2 (pHOPA-[dW]F[dW]LL-NH2; reading uncertain) [Analog R]”, in the data set on SCLC, the concentration for half-maximal inhibition (IC50) was 10 µM.
